According to patent US20240158384A1, “CB2 RECEPTOR AGONISTS” (The Board of Trustees of the Leland Stanford Junior …, priority 2020, published 2024):
≈ marks a conversion by molar mass, not a printed value.

Assays:
Male C57Bl6J mice = assay: Spontaneous locomotor activity in activity chamber; type: in vivo, mouse; settings: mice, compound alone i.p., 90 minutes after dosing, vs vehicle
GPR18 = target: T1, GPR18 (Homo sapiens, UniProt Q14330); assay: Off-target activity GPR18 (agonist, antagonist, PAM modes); type: cell-based
T1 sequence (Q14330 1-331): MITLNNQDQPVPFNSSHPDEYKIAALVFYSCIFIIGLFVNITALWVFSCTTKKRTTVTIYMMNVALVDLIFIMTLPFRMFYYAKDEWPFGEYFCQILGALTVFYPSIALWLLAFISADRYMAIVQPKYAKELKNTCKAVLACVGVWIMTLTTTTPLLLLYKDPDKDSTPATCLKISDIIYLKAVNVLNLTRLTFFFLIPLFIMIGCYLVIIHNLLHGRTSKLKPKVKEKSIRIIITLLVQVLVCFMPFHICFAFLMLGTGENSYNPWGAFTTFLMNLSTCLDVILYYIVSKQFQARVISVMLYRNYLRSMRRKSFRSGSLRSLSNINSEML
Experimental: (§1) Detailed characterization data was collected for Compound 22. Primary assays were carried out according to Examples 2 and 3, while other assays were carried out according to standard methods.

Microsomal stability = type: in vitro ADME
Experimental: as §1

human CB2R = human CB2R (Homo sapiens, UniProt P34972); assay: cAMP Hunter eXpress GPCR assay, human CB2: inhibition of forskolin-stimulated cAMP in CHO cells; type: cell-based; parameters: host or cells: CHO cells
Experimental: (§2) Briefly, cAMP Hunter eXpress Cells were seeded 18-24 h prior to the in a 96-well tissue culture treated assay plate and incubated in 5% CO2 at 37° C. in a humidified incubator. After removal of cell media, agonist compound and forskolin prepared in cell assay buffer was added and incubated at 37° C. The CB1 cAMP assay was stimulated with 20 μM final concentration of forskolin with 40 minutes incubation time. The CB2 cAMP assay was stimulated with 25 μM final concentration of forskolin with 35 minutes incubation time. The assay was stopped by incubation with antibody and working solution for 1 h at room temperature. After over 3 h incubation at room temperature in the dark with enzyme acceptor solution, chemiluminescence was measured on a CLARIOstar plate reader (BMG LABTECH Inc., Cary, NC, USA).

168 GPCRs = assay: Broad screening panel gpcrMAX; type: cell-based; settings: gpcrMAX at 70 nM against 168 GPCRs
Experimental: as §1

human CB1R = target: T2, human CB1R (Homo sapiens, UniProt P21554); assay: cAMP Hunter eXpress GPCR assay, human CB1: inhibition of forskolin-stimulated cAMP in CHO cells; type: cell-based
T2 construct: host or cells: CHO cells
Experimental: as §2

Neurons/Microglia = assay: Cytotoxicity (Neurons/Microglia); type: cell-based
Experimental: as §1

Aqueous solubility = type: physicochemical; settings: aqueous medium (not further specified)
Experimental: as §1

GPR55 = GPR55 (Homo sapiens, UniProt Q9Y2T6); assay: Off-target activity GPR55 (agonist, antagonist, PAM modes); type: cell-based
Experimental: as §1

Caco-2 = assay: In vitro permeability Caco-2; type: in vitro ADME
Experimental: as §1

[1] = tested on: spontaneous DA transients in NAc; assay: GRAB-DA fiber photometry, spontaneous DA transients; type: in vivo, mouse
Experimental: (§3) For this study, a probe was implanted into the nucleus accumbens (NAc) (FIG. 11A). Following baseline measurements, mice were dosed with vehicle or Compound 22 (10 mg/kg, i.p) followed 40 min later by a single dose of AMPH (2 mg/kg, i.p.). Samples were collected for 2 hr post-dosing. Extracellular dopamine (DA) levels in the dialysate were quantified by HPLC with electrochemical detection (FIG. 11B). […] Compound 22 modulates both spontaneous and reward-related DA release. To confirm these findings in parallel experiments, GPCR-activation based-DA (GRAB-DA) was used, which is a human D2R-GFP chimera sensor that produces fluorescence changes reliably and with sub-second kinetics in response to extracellular DA concentration changes in behaving animals (Sun et al. Cell 2018; 174(2):481-96.e19). Mice were injected with an adeno-associated virus (AAV) carrying GRAB-DA into the (NAc) (FIG. 11C) and allowed to recover for −2 weeks before fiber photometry experiments were performed. In the first pilot experiment, baseline DA release were recorded for 5 min before mice (n=3) were injected with either Compound 22 or vehicle and then recording was continued for 45 min. The rate of spontaneous DA transients was compared in the pre-injection (0-5 min) vs post-injection (35-50 min) periods; there was a significant time x drug interaction: F(1,4)=11.91, P=0.026.

hERG = hERG (Homo sapiens, UniProt Q12809); assay: hERG activity
Experimental: as §1

[2] = Mouse hepatocytes metabolic stability; type: in vitro ADME
Experimental: as §1

[3] = tested on: extracellular dopamine (DA) in nucleus accumbens; assay: Microdialysis of nucleus accumbens, extracellular dopamine after AMPH; type: in vivo, mouse; settings: 10 mg/kg i.p., 40 min before AMPH 2 mg/kg i.p.; n=1/group
Experimental: as §3

GPR119 = target: T3, GPR119 (Homo sapiens, UniProt Q8TDV5); assay: Off-target activity GPR119 (agonist, antagonist, PAM modes); type: cell-based
T3 sequence (Q8TDV5 1-335): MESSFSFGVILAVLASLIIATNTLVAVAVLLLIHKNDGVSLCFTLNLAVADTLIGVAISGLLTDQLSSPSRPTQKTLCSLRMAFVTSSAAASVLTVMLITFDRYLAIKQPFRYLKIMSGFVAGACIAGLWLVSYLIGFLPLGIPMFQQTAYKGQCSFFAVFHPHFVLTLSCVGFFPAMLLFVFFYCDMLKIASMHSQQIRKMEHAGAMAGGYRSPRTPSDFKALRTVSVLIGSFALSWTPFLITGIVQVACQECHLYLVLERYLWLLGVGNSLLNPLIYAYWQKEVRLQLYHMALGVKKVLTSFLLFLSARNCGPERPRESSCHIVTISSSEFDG
Experimental: as §1

Plasma protein binding = type: in vitro ADME
Experimental: as §1

Brain protein binding = type: in vitro ADME; settings: brain tissue
Experimental: as §1

human CB2R, sequence (P34972 whole entry): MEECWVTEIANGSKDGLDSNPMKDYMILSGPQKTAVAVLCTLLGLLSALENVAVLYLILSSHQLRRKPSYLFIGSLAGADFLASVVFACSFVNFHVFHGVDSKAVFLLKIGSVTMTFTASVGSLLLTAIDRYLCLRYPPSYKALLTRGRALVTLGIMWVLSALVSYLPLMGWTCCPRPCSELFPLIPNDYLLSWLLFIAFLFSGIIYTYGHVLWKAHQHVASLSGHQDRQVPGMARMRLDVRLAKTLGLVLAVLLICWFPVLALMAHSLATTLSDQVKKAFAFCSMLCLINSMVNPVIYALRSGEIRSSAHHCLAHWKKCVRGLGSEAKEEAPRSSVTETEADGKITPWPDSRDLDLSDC
GPR55, sequence (Q9Y2T6 whole entry, species assumed): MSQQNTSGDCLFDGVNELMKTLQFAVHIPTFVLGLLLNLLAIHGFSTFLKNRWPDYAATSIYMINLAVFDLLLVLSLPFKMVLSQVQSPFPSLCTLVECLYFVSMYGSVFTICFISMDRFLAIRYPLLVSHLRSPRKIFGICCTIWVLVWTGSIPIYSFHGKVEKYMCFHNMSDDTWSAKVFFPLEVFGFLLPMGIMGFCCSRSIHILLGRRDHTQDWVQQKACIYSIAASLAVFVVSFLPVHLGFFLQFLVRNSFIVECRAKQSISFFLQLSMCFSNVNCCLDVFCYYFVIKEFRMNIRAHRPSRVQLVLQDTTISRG
T2 sequence (P21554 whole entry): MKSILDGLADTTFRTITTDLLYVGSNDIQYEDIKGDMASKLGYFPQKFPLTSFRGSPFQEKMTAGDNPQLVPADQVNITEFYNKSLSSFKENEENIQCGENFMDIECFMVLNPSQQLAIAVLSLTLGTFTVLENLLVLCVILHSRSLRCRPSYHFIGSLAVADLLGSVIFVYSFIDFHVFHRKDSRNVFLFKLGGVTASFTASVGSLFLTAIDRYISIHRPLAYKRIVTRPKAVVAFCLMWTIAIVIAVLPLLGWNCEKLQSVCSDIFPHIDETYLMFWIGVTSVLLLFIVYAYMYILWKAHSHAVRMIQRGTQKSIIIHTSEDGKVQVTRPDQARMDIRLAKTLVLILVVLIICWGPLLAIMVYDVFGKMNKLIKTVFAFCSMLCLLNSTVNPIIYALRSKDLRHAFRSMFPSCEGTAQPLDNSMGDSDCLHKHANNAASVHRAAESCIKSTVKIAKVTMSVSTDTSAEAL
hERG, sequence (Q12809 whole entry): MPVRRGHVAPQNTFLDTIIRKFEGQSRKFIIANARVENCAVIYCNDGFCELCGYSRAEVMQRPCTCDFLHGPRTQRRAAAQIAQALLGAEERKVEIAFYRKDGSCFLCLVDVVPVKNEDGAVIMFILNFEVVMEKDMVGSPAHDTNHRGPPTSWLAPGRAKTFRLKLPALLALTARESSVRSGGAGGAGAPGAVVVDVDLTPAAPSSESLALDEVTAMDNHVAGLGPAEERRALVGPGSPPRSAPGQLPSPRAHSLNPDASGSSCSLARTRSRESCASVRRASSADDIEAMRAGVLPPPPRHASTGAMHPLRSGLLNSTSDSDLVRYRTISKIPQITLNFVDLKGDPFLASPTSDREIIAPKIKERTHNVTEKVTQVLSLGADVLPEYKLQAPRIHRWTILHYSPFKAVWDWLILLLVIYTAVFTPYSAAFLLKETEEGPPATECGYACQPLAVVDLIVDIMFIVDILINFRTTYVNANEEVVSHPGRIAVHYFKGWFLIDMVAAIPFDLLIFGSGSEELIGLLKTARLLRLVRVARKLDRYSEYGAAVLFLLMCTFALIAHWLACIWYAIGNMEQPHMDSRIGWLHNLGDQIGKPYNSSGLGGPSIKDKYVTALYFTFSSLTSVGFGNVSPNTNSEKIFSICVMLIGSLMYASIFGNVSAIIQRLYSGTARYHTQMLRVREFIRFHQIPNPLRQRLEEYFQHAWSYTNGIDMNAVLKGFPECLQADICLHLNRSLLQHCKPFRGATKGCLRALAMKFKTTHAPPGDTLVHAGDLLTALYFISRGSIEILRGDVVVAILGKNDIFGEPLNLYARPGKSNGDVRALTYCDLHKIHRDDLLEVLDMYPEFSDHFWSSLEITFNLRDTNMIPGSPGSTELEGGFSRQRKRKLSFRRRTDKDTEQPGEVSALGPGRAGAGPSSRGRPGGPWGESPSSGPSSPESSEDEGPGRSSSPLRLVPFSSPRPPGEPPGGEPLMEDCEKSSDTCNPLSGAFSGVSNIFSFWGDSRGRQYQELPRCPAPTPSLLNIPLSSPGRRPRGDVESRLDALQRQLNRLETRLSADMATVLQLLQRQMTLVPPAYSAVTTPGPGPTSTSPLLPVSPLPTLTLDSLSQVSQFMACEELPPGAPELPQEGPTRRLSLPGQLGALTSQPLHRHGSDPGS

With `CC(C)(CO)c1cc(NC(=O)N2CCCN2c2ccc(C(F)(F)F)cc2)no1` [Compound 22, N-(5-(1-hydroxy-2-methylpropan-2-yl)isoxazol-3-yl)-2-(4-(trifluoromethyl)phenyl)pyrazolidine-1-carboxamide] as the compound, how does the “Distance moved / spontaneous locomotor activity” value (Male C57Bl6J mice) read?
The value was “do not exhibit significantly different distance moved compared to the vehicle”.

And the EC50 (GPR18)?
The EC50 was over 10 µM.

And the IC50 (GPR18)?
Its IC50 is over 10 µM.

And the “Microsomal stability, clearance class” value (Microsomal stability)?
The value was “Low clearance”.

What about the half-life (Microsomal stability; microsomes, read-out: Microsomal stability t ½) of the same compound?
Its half-life is 2 h.

What about the EC50 (human CB2R; Activity in primary assay: CB2 EC50, Table 6, hCB2 cAMP, agonist mode, mean of n = 3-5 expts on ≥2 batches) of the same compound?
The EC50 was 0.067 µM.

What about the “Selectivity (related family)” value (human CB2R; CB1/CB2 cAMP) of the same compound?
Its value is 150 fold selectivity.

And the “Selectivity (pathway)” value (human CB2R; CB2 cAMP/CB2 beta-arrestin)?
The value was 9 fold selectivity.

What about the “CB2 agonist character (in words)” value (human CB2R; cAMP assay, CP-55940 as full agonist control) of the same compound?
The value was “potent agonists of CB2”.

What about the “Selectivity for CB2 over CB1 (in words)” value (human CB2R; cAMP assays hCB1 vs hCB2) of the same compound?
Its value is “selective for CB2 over CB1”.

What about the “Activity in broad screening panel” value (168 GPCRs) of the same compound?
The value was “No significant off”.

What about the EC50 (human CB1R) of the same compound?
The EC50 was over 10 µM.

And the “Cytotoxicity (Neurons/Microglia)” value (Neurons/Microglia)?
Its value is “not toxic”.

What about the solubility (Aqueous solubility) of the same compound?
Its solubility is 17.4 µg/mL (≈ 43.6 µM).

What about the EC50 (GPR55) of the same compound?
The EC50 was over 10 µM.

What about the IC50 (GPR55) of the same compound?
Its IC50 is over 10 µM.

What about the In vitro permeability (Caco-2) of the same compound?
The In vitro permeability was “High”.

What about the “Shape of the spontaneous DA transients” value ([1]; before and after injection) of the same compound?
The value was “widening the curve”.

And the “Rate of spontaneous DA transients” value ([1]; pre-injection (0-5 min) vs post-injection (35-50 min), n=3)?
Its value is “reduced the rate of spontaneous transients”.

What about the IC50 (hERG) of the same compound?
Its IC50 is over 10 µM.

What about the “Mouse hepatocytes metabolic stability, clearance class” value [2] of the same compound?
Its value is “Medium clearance”.

And the half-life ([2]; read-out: Mouse hepatocytes metabolic stability t ½)?
Its half-life is over 2 h.

What about the “Extracellular DA release after AMPH dosing” value [3] of the same compound?
Its value is “reduced extracellular DA release after AMPH dosing”.

And the EC50 (GPR119)?
Its EC50 is over 10 µM.

What about the IC50 (GPR119) of the same compound?
Its IC50 is over 10 µM.

What about the fraction unbound (Plasma protein binding) of the same compound?
Its fraction unbound is 0.0631.

What about the fraction unbound (Brain protein binding) of the same compound?
Its fraction unbound is 0.0198.
